Test results taken from patent US4968705A, “Benzopyrrolidinone compounds as bronchospastic agents” (Adir et Cie, priority 1988, dated 1990).
Like-named read-outs stand apart in the source and are kept apart here.

What was measured:
[1] = tested on: experimental asthma induced in guinea pigs by antigen aerosols; experiment: Passive shock in guinea pigs (experimental asthma induced by antigen aerosols); type: in vivo; settings: Cavia porcellus, read-out: Passive shock guinea pig ED50
Excerpt: to the determination of the passive shock resulting from the study of experimental asthma induced in guinea pigs by antigen aerosols and […]

[2] = tested on: histamine-induced bronchoconstriction; experiment: Armitage test: histamine-induced bronchoconstriction test in guinea pigs; type: in vivo; settings: guinea pig p.o.
Excerpt: (§1) The compounds of the invention and the prior art product fenspiride of the prior art used as reference substance were subjected to various tests described in ARZNEIMITTEL-FORSCHUNG/DRUG RESEARCH 37 (II), 12, 1354-1355 (1987), especially
the histamine-induced bronchoconstriction test in guinea pigs, […]

Toxicity LD50 in mouse = type: in vivo; settings: in vivo
Excerpt: as §1

mice's ear edema = experiment: Mice's ear edema (technique of Young et al.); type: in vivo; settings: for decrease of the mice's ear edema: per os, 36 micromole/kg
Protocol: The compounds of the present invention were also tested on the mice's ear edema according to the technique of John M. YOUNG et al., Journal of […], 82, 363-371 (1984). Administrated, per os, at a dose of 36 micromole/kg, the derivatives of the present invention provoke a decrease of the mice's ear edema of from 15 to 50% according to the compounds.

[3] = target: purified phosphodiesterase; experiment: In vitro inhibition of purified phosphodiesterase; type: biochemical
Excerpt: as §1
to assays in vitro on the inhibition of purified phosphodiesterase.

mouse = experiment: Toxicity LD50 in mouse; type: in vivo; settings: PO
Excerpt: as §1

[4] = +calmoduline, read-out: Phosphodiesterase inhibition IC50 +calmoduline (converted)
[5] = basal, read-out: Phosphodiesterase inhibition IC50 basal (converted)
[6] = Cavia porcellus, po, read-out: Armitage test % protection
[7] = Cavia porcellus, po, dose 1 mg/kg, read-out: Armitage test % protection

Row | SMILES | ED50 ([1]; guinea pig, PO) [mg/kg] | IC50 [3, 4] [µM] | IC50 [3, 5] [µM] | inhibition in vivo at 5 mg/kg [2, 6] [%] | LD50 (Toxicity LD50 in mouse; PO) [mg/kg] | other results
1 | O=C1Cc2ccccc2N1CCCN1CCC(C(c2ccc(F)cc2)c2ccc(F)cc2)CC1 [Example 4, 1-(4-bis-para-fluorobenzhydrylpiperidinopropyl)-oxindole] | – | – | – | – | – | ED50 ([1]; guinea pig, IP): 40 mg/kg; inhibition in vivo at 20 mg/kg ([2]; Cavia porcellus, po, dose 20 mg/kg, read-out: Armitage test % protection): 59.4%; LD50 (Toxicity LD50 in mouse; IP): ~200 mg/kg
2 | O=c1[nH]c2ccccc2n1CCCN1CCN(C(c2ccccc2)c2ccccc2)CC1 [oxatomide] | – | – | – | – | – | decrease of the mice's ear edema (mice's ear edema): lower than 15%
3 | O=C1Cc2cc(F)ccc2N1CCCN1CCC(OC(c2ccccc2)c2ccccc2)CC1 [Example 17, 1-(4-benzhydryloxypiperidinopropyl)-5-fluoro-oxindole] | 40 | 10 | > 100 | 75 | > 800 | –
4 | O=C1c2ccc(F)cc2CN1CCCN1CCC(OC(c2ccccc2)c2ccccc2)CC1 [Example 19, 2-(4-benzhydryloxypiperidinopropyl)-5-fluoro-isoxindole] | 10 | 20 | > 100 | 68 | > 800 | –
5 | O=C1c2ccccc2CN1CCCN1CCC(OC(c2ccccc2)c2ccccc2)CC1 [Example 16, 2-(4-benzhydryloxypiperidinopropyl)-isoxindole] | 5 | 30 | > 100 | 82 | > 800 | –
6 | O=C1c2cc(F)ccc2CN1CCN1CCC(OC(c2ccccc2)c2ccccc2)CC1 [Example 20, 2-(4-benzhydryloxypiperidinoethyl)-6-fluoro-isoxindole] | 40 | 20 | > 100 | 43 | > 800 | –
7 | O=C1Cc2ccccc2N1CCN1CCC(OC(c2ccc(F)cc2)c2ccc(F)cc2)CC1 [Example 7, 1-(4-bis-para-fluorobenzhydryloxypiperidinoethyl)oxindole] | – | – | – | – | – | ED50 ([1]; po): 2.5 to 5 mg/kg; Phosphodiesterase inhibition IC50 basal ([3]; basal): inactif; Armitage test % protection ([2]; dose 1 mg/kg): +50%; Toxicity LD50 (mouse): < 800 mg/kg
8 | O=C1Cc2ccccc2N1CCN1CCC(C(c2ccc(F)cc2)c2ccc(F)cc2)CC1 [Example 10, 1-(4-bis-para-fluorobenzhydrylpiperidinoethyl)oxindole] | – | 100 | > 100 | 78 | < 800 | –
9 | COc1cc2c(cc1OC)C(=O)N(CCCN1CCC(OC(c3ccccc3)c3ccccc3)CC1)C2 [Example 12, 2-(4-benzhydryloxypiperidinopropyl)-5,6-dimethoxyisoxindole] | 20 | 20 | 70 | 79 | 800 | –
10 | O=C1Cc2ccccc2N1CCN1CCC(OC(c2ccc(F)cc2)c2ccc(F)cc2)CC1 [Example 3, 1-(4-bis-para-fluorobenzhydryloxypiperidinoethyl)oxindole] | – | – | – | – | < 800 | Phosphodiesterase inhibition IC50 basal ([3]; basal): inactif; inhibition in vivo at 1 mg/kg [2, 7]: 47.6%
11 | O=C1NCC2(CCN(CCc3ccccc3)CC2)O1 [Fenspiride, reference compound] | 10 | > 100 | > 100 | – | > 800 | ED50 ([1]; guinea pig, IP): 5 mg/kg; inhibition in vivo at 2.5 mg/kg ([2]; Cavia porcellus, po, dose 2,5 mg/kg, read-out: Armitage test % protection): 69%; activity on mice's ear edema (in words) (mice's ear edema; same conditions and same dose (per os, 36 micromole/kg)): no activity
12 | O=C1c2ccc(F)cc2CN1CCN1CCC(OC(c2ccccc2)c2ccccc2)CC1 [Example 18, 2-(4-benzhydryloxypiperidinoethyl)-5-fluoro-isoxindole] | 40 | 20 | 100 | 68 | > 800 | –
13 | O=C1Cc2cccc(F)c2N1CCN1CCC(OC(c2ccccc2)c2ccccc2)CC1 [Example 6, 1-(4-benzhydryloxypiperidinoethyl)-7-fluoro-oxindole] | – | – | – | – | – | Phosphodiesterase inhibition IC50 basal ([3]; basal): inactif; inhibition in vivo at 1 mg/kg [2, 7]: 36.6%
14 | O=C1c2ccccc2CN1CCN1CCC(OC(c2ccccc2)c2ccccc2)CC1 [Example 2, 2-(4-benzhydryloxypiperidinoethyl)isoxindole] | 2.5 to 5 | – | > 100 | – | > 800 | inhibition in vivo at 1 mg/kg [2, 7]: 36%
15 | O=C1Cc2ccccc2N1CCN1CCC(SC(c2ccccc2)c2ccccc2)CC1 [Example 9, 1-(4-benzhydrylthiopiperidinoethyl)-oxindole] | – | – | – | 60 | – | –
16 | O=C1Cc2ccccc2N1CCCN1CCC(OC(c2ccccc2)c2ccccc2)CC1 [Example 5, 1-(4-benzhydryloxypiperidinopropyl)-oxindole] | – | 100 | > 100 | – | – | inhibition in vivo at 1 mg/kg [2, 7]: 72.1%
17 | O=C1Cc2cc(F)ccc2N1CCN1CCC(OC(c2ccccc2)c2ccccc2)CC1 [Example 8, 1-(4-benzhydryloxypiperidinoethyl)-5-fluoro-oxindole] | – | – | > 10 | – | – | ED50 ([1]; po): 2.5 to 5 mg/kg; inhibition in vivo at 1 mg/kg [2, 7]: 72%
18 | CC1(C)C(=O)N(CCN2CCC(OC(c3ccccc3)c3ccccc3)CC2)c2ccccc21 [Example 14, 1-(4-benzhydryloxypiperidinoethyl)-3,3-dimethyloxindole] | > 40 | 20 | 30 | 70 | > 800 | –
19 | O=C1Cc2ccccc2N1CCN1CCC(OC(c2ccccc2)c2ccccc2)CC1 [Example 1, 1-(4-benzhydryloxypiperidinoethyl)oxindole] | – | – | – | – | – | ED50 ([1]; ip): 2.5 mg/kg; ED50 ([1]; po): 5 mg/kg; Phosphodiesterase inhibition IC50 basal ([3]; basal): inactif; inhibition in vivo at 1 mg/kg [2, 7]: 66%; LD50 (Toxicity LD50 in mouse; IP): ~200 mg/kg
20 | CC(C)C1C(=O)N(CCN2CCC(OC(c3ccccc3)c3ccccc3)CC2)c2ccccc21 (stereo not drawn) [Example 15, 1-(4-benzhydryloxypiperidinoethyl)-3-isopropyloxindole] | 5 | 30 | 100 | 50 | > 800 | –
21 | O=c1[nH]c2ccccc2n1CCN1CCC(OC(c2ccccc2)c2ccccc2)CC1 [1[(2-oxo-3-benzimidazolinyl-ethyl]-4-benzhydryloxy-piperidine] | – | – | – | – | – | decrease of the mice's ear edema (mice's ear edema): lower than 15%
